From patent publication US20180271987A1, “Controlled Cell Delivery Vehicle and Treatment of Tumours” (The University of Nottingham, priority 2015, published 2018)

B1: heparinase III: enzyme used to deplete cell membrane GAGs (protein, UniProt Q59289 25-659, looked up)
Heparin-sulfate lyase: QSSSITRKDFDHINLEYSGLEKVNKAVAAGNYDDAAKALLAYYREKSKAREPDFSNAEKPADIRQPIDKVTREMADKALVHQFQPHKGYGYFDYGKDINWQMWPVKDNEVRWQLHRVKWWQAMALVYHATGDEKYAREWVYQYSDWARKNPLGLSQDNDKFVWRPLEVSDRVQSLPPTFSLFVNSPAFTPAFLMEFLNSYHQQADYLSTHYAEQGNHRLFEAQRNLFAGVSFPEFKDSPRWRQTGISVLNTEIKKQVYADGMQFELSPIYHVAAIDIFLKAYGSAKRVNLEKEFPQSYVQTVENMIMALISISLPDYNTPMFGDSWITDKNFRMAQFASWARVFPANQAIKYFATDGKQGKAPNFLSKALSNAGFYTFRSGWDKNATVMVLKASPPGEFHAQPDNGTFELFIKGRNFTPDAGVFVYSGDEAIMKLRNWYRQTRIHSTLTLDNQNMVITKARQNKWETGNNLDVLTYTNPSYPNLDHQRSVLFINKKYFLVIDRAIGEATGNLGVHWQLKEDSNPVFDKTKNRVYTTYRDGNNLMIQSLNADRTSLNEEEGKVSYVYNKELKRPAFVFEKPKKNAGTQNFVSIVYPYDGQKAPEISIRENKGNDFEKGKLNLTLTINGKQQLVLVP

tested on: NIH3t3: LSL-eGFP cells; test: Cre recombination assay (eGFP activation); assay type: cell-based, mouse; conditions: cells pre-treated with the agent
Excerpt: Previous studies have the avoided issues associated with direct measurement of fluorescent-tagged proteins (such as being unable to distinguish membrane, vesicle or functional cytosolic/nuclear protein) by assaying for the successful nuclear activity of Cre recombinase {Gump, 2010 #2}. This system was used to measure Cre-mediated recombination of a loxP-STOP-loxP (LSL) enhanced green fluorescent protein (eGFP) reporter gene in live NIH3t3 mouse fibroblast cells (NIH3t3: LSL-eGFP cells) as an indicator of cellular uptake (FIG. 18a). This system is rigorous as activation of green fluorescence requires exogenous Cre protein to enter the cell, undergo nuclear-translocation and excise the LSL fragment of the transgene. This must occur in live cells and be non-toxic for the subsequent expression of eGFP. […] To overcome this issue Cre proteins were delivered at limiting dilutions for a short exposure time (1 hour) and the minimum dose required to activate green fluorescence after 48 hours (FIG. 18c) was determined.
To measure Cre Recombinase activity the NIH3t3: LSL-eGFP cell line was created using the pZ/EG plasmid transfection and G-418 selection {Novak, 2000 #6}. […] 2×10^5 cells/well were plated (in 12-well plates), pre-incubated them in DMEM without serum for 1 hour and treated with Cre proteins (0-500 μg/ml) in DMEM without serum. After the Cre incubation cells were trypsinized, replated into complete media and incubated for 2 days. Cells were pre-treated with drugs for the stated time-period in DMEM without serum, were included in Cre-transduction medium and were added after replating. […] After incubations cell were trypsinized, washed, fixed in 4% PFA and % recombined cells was determined by flow cytometry. For mR-Cre-8R and P21-mR-Cre-8R comparisons concentrations of 100 μg/ml and 10 μg/ml were used, respectively and data was expressed as % maximum recombination (i.e. the % relative to the maximum recombination achieved at the stared dose of Cre).

Molecule	effect of drug or enzyme treatment on functional delivery / recombination of HETD-tagged Cre protein
N=C(N)NC(=O)c1nc(Cl)c(N)nc1N [Amiloride]	dose-dependent reduction of functional transduction into cells
C=C1[C@@H](C)[C@H]2[C@H](Cc3ccccc3)NC(=O)[C@]23[C@H](OC(C)=O)/C=C/[C@@](C)(O)C(=O)[C@@H](C)C/C=C/[C@H]3[C@@H]1O [Cytochalasin D]	dose-dependent reduction of functional transduction into cells
C[C@@H]1[C@H](O)[C@@H](C)/C=C/C=C/CC/C=C/C=C/C=C/C=C/C(O[C@H]2O[C@H](C)[C@@H](O)[C@H](N)[C@@H]2O)CC2O[C@](O)(CC(O)C(O)CCC(O)CC(O)CC(O)CC(=O)O[C@H]1C)CC(O)C2C(=O)O (stereo partly drawn) [nystatin]	dose-dependent inhibition of functional delivery
methyl-β-cyclodextrin	dose-dependent inhibition of functional delivery
B1	reduced recombination to basal-levels

tested on: cells; test: not given; conditions: literature; cited from earlier work

Molecule	increase of nanoparticle uptake [%]
Arg-Gly-Asp [RGD]	50
